As a reminder, the viability, T/C is the result in the treated group divided by that in the control group, in per cent. As usually defined, the IC50 is the concentration that inhibits the measured activity by half.

Several values for one entry are separate records, joined by “and”; a condition that tells them apart may be missing. Equal values may be shown once.

Three molecules from PubChem BioAssay AID2060607 (Molecular Pharmacology Branch, DTP, NCI, 2025) can be followed below.

The test system of the experiment is 876862-298-R-J1-PDC complex spheroids, viability % test/control. Briefly: Anticancer human tumor 876862-298-R-J1-PDC patient-derived endometrial carcinoma cell line growth inhibition [CLK]. To be noted: for viability, T/C: stronger effect = lower value. The text has this:
A high-throughput screen of multi-cell type tumor spheroids was designed to identify active combinations of […] and targeted small molecules. Complex spheroids include a stromal component modeled by human endothelial cells (HUVEC) and fibroblasts modeled by human mesenchymal stem cells (MSCs). The concentration ranges selected for each drug and investigational agent were based upon clinically achievable concentrations if the clinical Cmax of the agent was known.
Compounds. The drugs and investigational agents: cirtuvivint (SM08502; NSC835563), CC-671 (NSC850746), vemurafenib (NSC761431), tapotoclax (NSC804041), sotorasib (NSC818433), adagrasib (NSC831453), MRTX-1133 (NSC836407), BAY2416964 (NSC825713), copanlisib (NSC816437), inavolisib (NSC800729), abemaciclib (NSC768073), osimertinib (NSC779217), entinostat (NSC756642), eltanexor (KPT-8602, NSC794443), venetoclax (NSC766270), ceralasertib (NSC777638), bortezomib (NSC756655), olaparib (NSC753686), talazoparib (NSC767125), alisertib (NSC759677), peposertib (NSC802822), gemcitabine (NSC613327), 5-fluorouracil (NSC19893), SN-38 (NSC673596), oxaliplatin (NSC266046), paclitaxel (NSC125973), and doxorubicin (NSC123127), were obtained from the National Cancer Institute (NCI) Developmental Therapeutics Program Chemical Repository. The FDA-approved anticancer drug set is available from the Developmental Therapeutics Program at https://dtp.cancer.gov/organization/dscb/obtaining/available plates.htm. […] The stock solutions were prepared in dimethyl sulfoxide (DMSO, Sigma-Aldrich, St. Louis, MO, cat. D2650), except for the platinum complexes which were prepared in saline (Quality Biological, Gaithersburg, MD, cat. 114-055-101), at 800-fold the tested concentration and stored at -70 degrees C prior to their use. All drugs and investigational agents were tested over a range starting from a high concentration at or near the clinical Cmax and decreasing in half-log increments. If the clinical Cmax for an agent had not been determined, the highest concentration tested was 10 microM.
Cell Culture. All cells were maintained in an incubator at 37 degrees C and 5% CO2 with 95% humidity. The PDC lines were cultured according to standard operating procedures established by the NCI PDMR. Briefly, all PDCs were thawed and cultured in Matrigel-coated flasks prepared with a working solution of 1X Ham's F-12 nutrient mix, without supplementation (Invitrogen, Waltham, MA, cat. 11765054), 100 U/mL penicillin-streptomycin (Invitrogen, cat. 15140122), and 2.5% Matrigel (Corning Inc., Corning, NY, cat. 354248) for the first three passages. The 947758-054-R-J2-PDC line was cultured in 6B/Colon 1A media, which includes advanced DMEM/F-12 (Thermo Fisher Scientific, cat. 12634028), 10 mM HEPES (Thermo Fisher Scientific, cat. 15630080), 1X GlutaMAX supplement (Thermo Fisher Scientific, cat. 35050061), 0.1 mg/mL primocin (InvivoGen, cat. ant-pm-2), 10% defined fetal bovine serum, heat inactivated (HyClone Laboratories Inc., cat. SH30070.03HI), 1.25 mM N-Acetyl-L-cysteine (Sigma-Aldrich, cat. A9165), 10 mM nicotinamide (Sigma-Aldrich, cat. N0636), 1X B-27 supplement (Thermo Fisher Scientific, cat. 17504044), 1X N-2 supplement (Thermo Fisher Scientific, cat. 17502048), and 10 microM Y-27632 dihydrochloride (Tocris Bioscience, cat. 1254). The 876862-298-R-J1-PDC was cultured in 6E media, which includes all 6B/Colon 1A media components plus 50% L-WRN conditioned media (ATCC, cat. CRL-3276), 50 ng/mL recombinant human EGF recombinant protein (hEGF; Thermo Fisher Scientific, cat. PHG0311), 10 ng/mL recombinant human fibroblast growth factor 10 (hGFG-10; PeproTech, cat. 100-26), 1 ng/mL recombinant human fibroblast growth factor 2 (hFGF-2; PeproTech, cat. 100-18B), and 1 µM prostaglandin E2 (PGE2; Tocris, cat. 2296). The 227483-062-R1-J1-PDC line was cultured in Panc media, containing all 6E components except hFGF-2, with the addition of 500 nM SB-431542 (Selleckchem, cat. S1067) and 10 nM gastrin (Tocris, cat. 3006). […]
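Further: spheroids exposed to drugs for 7 days before readout.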
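Wherever viability, T/C is given: 100% = DMSO vehicle control wells.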

On to `NC(=O)C(=Cn1cnc(-c2cc(C(F)(F)F)cc(C(F)(F)F)c2)n1)c1cncnc1`, for which the viability, T/C (compound 0.00949 µM) was 78% and 78.2%; the viability, T/C (compound 0.03 µM) was 54.1% and 60.3%; the viability, T/C (compound 0.0949 µM) is 37.5% and 38.2%; the viability, T/C (compound 0.3 µM) was 33.6% and 27.7%; the viability, T/C (compound 0.949 µM) was 24.4% and 18.7%; the viability, T/C (compound 3 µM) was 13.4% and 12.4%. Also, the IC50 (curve of compound) was 47.3 nM and 52.2 nM.

As to `COc1cccc2c1C(=O)c1c(O)c3c(c(O)c1C2=O)CC(O)(C(=O)CO)CC3OC1CC(N)C(O)C(C)O1` (stereo unspecified), the viability, T/C is, setting by setting: (compound 0.0316 µM) 41.8% and 33.2%; (compound 0.1 µM) 16.9% and 13.5%; (compound 0.316 µM) 7.66% and 6.87%; (compound 1 µM) 7.07% and 7.16%; (compound 3.16 µM) 0.89% and 0.78%; (compound 10 µM) 4.03% and 4%. Further, the IC50 (curve of compound) is under 31.6 nM.

On to `CCCS(=O)(=O)Nc1ccc(F)c(C(=O)c2c[nH]c3ncc(-c4ccc(Cl)cc4)cc23)c1F` + CNC(=O)c1ccc(Nc2nc(OC3CCCC3)c3c(-c4ccc5nc(C)oc5c4)c[nH]c3n2)c(OC)c1, for which the IC50 is, setting by setting: (curve of first compound, second compound 0.0316 µM) 7040 nM; (curve of first compound, second compound 0.1 µM) under 31.6 nM; (curve of first compound, second compound 0.316 µM) under 31.6 nM; (curve of first compound, second compound 1 µM) under 31.6 nM; (curve of first compound, second compound 3.16 µM) under 31.6 nM; (curve of first compound, second compound 10 µM) under 31.6 nM. The viability, T/C runs as follows: (second compound 0.0316 µM, first compound 0.0316 µM) 72.1%; (second compound 0.0316 µM, first compound 0.1 µM) 89.1%; (second compound 0.0316 µM, first compound 0.316 µM) 88.1%; (second compound 0.0316 µM, first compound 1 µM) 90.9%; (second compound 0.0316 µM, first compound 3.16 µM) 68.2%; (second compound 0.0316 µM, first compound 10 µM) 42%. The viability, T/C runs as follows: (second compound 0.1 µM, first compound 0.0316 µM) 40.2%; (second compound 0.1 µM, first compound 0.1 µM) 54.9%; (second compound 0.1 µM, first compound 0.316 µM) 50.5%; (second compound 0.1 µM, first compound 1 µM) 49.2%; (second compound 0.1 µM, first compound 3.16 µM) 40.4%; (second compound 0.1 µM, first compound 10 µM) 26.6%. Besides, the viability, T/C (second compound 0.316 µM, first compound 0.0316 µM) was 45.6%; the viability, T/C (second compound 0.316 µM, first compound 0.1 µM) was 41.2%; the viability, T/C (second compound 0.316 µM, first compound 0.316 µM) is 43.8%; the viability, T/C (second compound 0.316 µM, first compound 1 µM) was 40.1%; the viability, T/C (second compound 0.316 µM, first compound 3.16 µM) was 31.7%; the viability, T/C (second compound 0.316 µM, first compound 10 µM) was 18.1%. The viability, T/C was 36.9% (second compound 1 µM, first compound 0.0316 µM); 32% (second compound 1 µM, first compound 0.1 µM); 30.7% (second compound 1 µM, first compound 0.316 µM); 32.7% (second compound 1 µM, first compound 1 µM); 22.4% (second compound 1 µM, first compound 3.16 µM); 12.7% (second compound 1 µM, first compound 10 µM). Moreover, the viability, T/C by setting is: (second compound 3.16 µM, first compound 0.0316 µM) 23.5%; (second compound 3.16 µM, first compound 0.1 µM) 25.1%; (second compound 3.16 µM, first compound 0.316 µM) 21.2%; (second compound 3.16 µM, first compound 1 µM) 26.1%; (second compound 3.16 µM, first compound 3.16 µM) 19.1%; (second compound 3.16 µM, first compound 10 µM) 10.8%. For the same molecule, the viability, T/C reads like this: (second compound 10 µM, first compound 0.0316 µM) 23.1%; (second compound 10 µM, first compound 0.1 µM) 21.4%; (second compound 10 µM, first compound 0.316 µM) 21%; (second compound 10 µM, first compound 1 µM) 22.3%; (second compound 10 µM, first compound 3.16 µM) 15.9%; (second compound 10 µM, first compound 10 µM) 10.4%.
